Here are results for 20 compounds from ChEMBL document CHEMBL4364300, “Boron in drug design: Recent advances in the development of new therapeutic agents” (Eur J Med Chem, 2019).

Each structure is given as a SMILES string. In brackets after ≈: the same amount, converted by molar mass.

Assay [1] concerns Mycobacterium tuberculosis. Description: Antimycobacterial activity against Mycobacterium tuberculosis H37Rv after 14 days by broth micro-dilution method. Format: functional. Conditions: 336 h. For orientation: Broth dilution looks for growth in wells or tubes with falling amounts of substance.
For the next assay, the system named is GH3. The assay can be described thus: Cytotoxicity against rat GH3 cells. Format: functional, cell-based.
Another assay has as its system THP-1. Description: Cytotoxicity against human THP1 cells after 72 hrs by SRB assay. The following applies: THP-1, 72 h. In kind it is functional, cell-based. For orientation: The SRB assay estimates cell density from bound dye.
Assay [2] in a line: Inhibition of bacterial beta lactamase AmpC. The arrangement: species or system Bacteria.
Assay [3] can be described thus: Inhibition of bacterial beta lactamase VIM-2. Also on record: species or system Bacteria.
Assay [4] in a line: Inhibition of bacterial beta lactamase NDM-1. The arrangement: species or system Bacteria.
The nature of assay [5]: Inhibition of bacterial beta lactamase KPC-2. Also on record: species or system Bacteria.
The nature of assay [6]: Inhibition of bacterial beta lactamase CTX-M-15. Also on record: species or system Bacteria.
The target in assay [7] is 3',5'-cyclic-AMP phosphodiesterase 4B (Homo sapiens, UniProt Q07343). The assay can be described thus: Inhibition of […] human recombinant PDE4B catalytic domain (152 to 484 residues).
The test system of assay [8] is Leishmania tropica. The assay can be described thus: Antileishmanial activity Leishmania tropica MHOM/IR/2013/HTD4 after 72 hrs by giemsa staining based light microscopic analysis. Format: functional, organism-based. The following applies: MHOM/IR/2013/HTD4, 72 h.
A further assay concerns Leishmania major. The assay can be described thus: Antileishmanial activity Leishmania major MHOM/SA/85/JISH118 after 72 hrs by giemsa staining based light microscopic analysis. Format: functional, organism-based. Conditions: MHOM/SA/85/JISH118, 72 h.
The test system of a further assay is Leishmania panamensis. The assay can be described thus: Antileishmanial activity Leishmania panamensis MHOM/PA/67/BOYNTON after 72 hrs by giemsa staining based light microscopic analysis. In kind it is functional, organism-based.
A further assay concerns Leishmania aethiopica. The assay can be described thus: Antileishmanial activity Leishmania aethiopica MHOM/ET/84/KH after 72 hrs by giemsa staining based light microscopic analysis. In kind it is functional, organism-based.
A further assay concerns Leishmania mexicana. The assay can be described thus: Antileishmanial activity Leishmania mexicana MNYC/BZ/62/M379 after 72 hrs by giemsa staining based light microscopic analysis. Format: functional, organism-based. Conditions: MNYC/BZ/62/M379, 72 h.
Assay [9] deals with Leishmania tropica. Description: Antileishmanial activity Leishmania tropica AO21/p after 72 hrs by giemsa staining based light microscopic analysis. Format: functional, organism-based.
Assay [10] in a line: Inhibition of Enterobacter cloacae beta lactamase P99 after 5 mins.
A short description of assay [11]: Inhibition of bacterial beta lactamase OXA-48 after 5 mins. Also on record: species or system Bacteria.
Assay [12] in a line: Inhibition of bacterial beta lactamase OXA-10 after 5 mins. Also on record: species or system Bacteria.
The nature of assay [13]: Inhibition of bacterial beta lactamase KPC-2 after 5 mins. Also on record: species or system Bacteria.
Another assay addresses Beta-lactamase TEM (Bacteria, UniProt P62593). The assay can be described thus: Inhibition of bacterial beta lactamase TEM-1 after 5 mins.
The nature of assay [14]: Inhibition of bacterial beta lactamase CTX-M-15 after 5 mins. The arrangement: species or system Bacteria.
Assay [15] is described as follows: Inhibition of bacterial beta lactamase OXA-24 after 5 mins. Also on record: species or system Bacteria.
Assay [16] can be described thus: Inhibition of Pseudomonas aeruginosa beta lactamase AmpC after 5 mins.
For the next assay, the system named is Hep 3B2. The assay can be described thus: Antiproliferative activity against human Hep3B cells by MTT assay. In kind it is functional, cell-based. (Formazan colour is commonly taken as a measure of viable cells.)
The next assay relates to HepG2. The assay can be described thus: Antiproliferative activity against human HepG2 cells by MTT assay. In kind it is functional, cell-based.
Assay [17] deals with Proteasome Macropain subunit MB1 (Homo sapiens, UniProt P28074). The assay can be described thus: Inhibition of human chymotrypsin-like activity of 20S proteasome (unknown origin).
For assay [18], the system named is MDA-MB-231. Description: Antiproliferative activity against human MDA-MB-231 cells after 72 hrs. Format: functional, cell-based. Conditions: MDA-MB-231, 72 h.
The next assay deals with A2780. Description: Antiproliferative activity against human A2780 cells by MTT assay. Format: functional, cell-based.
The subject of assay [19] is Mycobacterium tuberculosis. Description: […] activity against Mycobacterium tuberculosis. Format: functional.
The subject of a further assay is Trichomonas vaginalis. The assay can be described thus: Antiprotozoal activity against Trichomonas vaginalis G3. Format: functional, organism-based.
Assay [20] relates to Trypanosoma brucei brucei. Description: Anti-parasitic activity against trypomastigote form of Trypanosoma brucei brucei 427 after 24 hrs by resazurin dye-based assay. In kind it is functional, organism-based. The following applies: Trypanosoma brucei, 427, 24 h.
The nature of assay [21]: Inhibition of bacterial beta lactamase CTX-M-9. Also on record: species or system Bacteria.
A further assay has as its system Streptococcus pneumoniae. The assay can be described thus: Antibacterial activity against Streptococcus pneumoniae ATCC 49619. In kind it is functional.
For a further assay, the system named is Enterococcus faecium. The assay can be described thus: Antibacterial activity against Enterococcus faecium ATCC 568. In kind it is functional.
A short description of assay [22]: Inhibition of bacterial beta lactamase OXA-24. The arrangement: species or system Bacteria.
Another assay relates to SK-OV-3. Description: Antiproliferative activity against human SKOV3 cells by MTT assay. Format: functional, cell-based.
The test system of assay [23] is MDA-MB-231. The assay can be described thus: Antiproliferative activity against human MDA-MB-231 cells by MTT assay. Format: functional, cell-based.
For another assay, the system named is HCT-116. The assay can be described thus: Antiproliferative activity against human HCT116 cells by MTT assay. In kind it is functional, cell-based.
In assay [24] the test system is Plasmodium falciparum. The assay can be described thus: Antimalarial activity against Plasmodium falciparum 3D7 after 48 hrs by [3H]-hypoxanthine incorporation assay. In kind it is functional, organism-based.
The test system of assay [25] is Plasmodium falciparum. Description: Antimalarial activity against Plasmodium falciparum Dd2 after 48 hrs by [3H]-hypoxanthine incorporation assay. Format: functional, organism-based.
The subject of assay [26] is Plasmodium falciparum. Description: Antimalarial activity against Plasmodium falciparum AN3661 derived from malaria patient. In kind it is functional.
Assay [27] relates to Plasmodium falciparum. The assay can be described thus: Antimalarial activity against Plasmodium falciparum K1 after 48 hrs by [3H]-hypoxanthine incorporation assay. Format: functional, organism-based.
In another assay the test system is Plasmodium berghei. Description: Antimalarial activity against Plasmodium berghei […]. In kind it is functional.
Assay [28] relates to Plasmodium falciparum. Description: Antimalarial activity against Plasmodium falciparum HB3 after 48 hrs by [3H]-hypoxanthine incorporation assay. Format: functional, organism-based.
Assay [29] deals with Plasmodium falciparum. Description: Antimalarial activity against Plasmodium falciparum Ugandan field isolates after 48 hrs by [3H]-hypoxanthine incorporation assay. Format: functional, organism-based.
Assay [30] has as its system Plasmodium falciparum. The assay can be described thus: Antimalarial activity against Plasmodium falciparum TM90C2B after 48 hrs by [3H]-hypoxanthine incorporation assay. In kind it is functional, organism-based.
The subject of assay [31] is Plasmodium falciparum. The assay can be described thus: Antimalarial activity against Plasmodium falciparum FCR-3 after 48 hrs by [3H]-hypoxanthine incorporation assay. In kind it is functional, organism-based. Conditions: FCR-3/Gambia.
Assay [32] deals with Plasmodium falciparum. The assay can be described thus: Antimalarial activity against Plasmodium falciparum W2 after 48 hrs by [3H]-hypoxanthine incorporation assay. Format: functional, organism-based.

Chain of Proteasome Macropain subunit MB1 (P28074 whole entry): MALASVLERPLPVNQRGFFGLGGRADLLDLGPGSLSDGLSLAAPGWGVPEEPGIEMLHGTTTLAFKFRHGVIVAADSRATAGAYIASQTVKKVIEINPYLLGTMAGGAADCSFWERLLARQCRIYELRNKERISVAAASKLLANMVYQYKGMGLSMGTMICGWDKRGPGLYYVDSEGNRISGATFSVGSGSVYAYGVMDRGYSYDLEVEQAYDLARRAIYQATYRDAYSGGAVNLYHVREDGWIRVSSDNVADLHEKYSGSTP
Chain of Beta-lactamase TEM (P62593 whole entry): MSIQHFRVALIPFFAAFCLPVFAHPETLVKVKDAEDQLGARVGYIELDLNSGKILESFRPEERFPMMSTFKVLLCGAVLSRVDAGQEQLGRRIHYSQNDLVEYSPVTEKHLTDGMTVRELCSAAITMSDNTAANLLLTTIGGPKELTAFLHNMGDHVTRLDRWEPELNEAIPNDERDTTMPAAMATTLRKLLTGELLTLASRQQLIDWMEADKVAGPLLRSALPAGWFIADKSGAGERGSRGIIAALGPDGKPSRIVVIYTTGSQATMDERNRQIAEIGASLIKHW
Chain of 3',5'-cyclic-AMP phosphodiesterase 4B (Q07343 whole entry, the tested form may be a part): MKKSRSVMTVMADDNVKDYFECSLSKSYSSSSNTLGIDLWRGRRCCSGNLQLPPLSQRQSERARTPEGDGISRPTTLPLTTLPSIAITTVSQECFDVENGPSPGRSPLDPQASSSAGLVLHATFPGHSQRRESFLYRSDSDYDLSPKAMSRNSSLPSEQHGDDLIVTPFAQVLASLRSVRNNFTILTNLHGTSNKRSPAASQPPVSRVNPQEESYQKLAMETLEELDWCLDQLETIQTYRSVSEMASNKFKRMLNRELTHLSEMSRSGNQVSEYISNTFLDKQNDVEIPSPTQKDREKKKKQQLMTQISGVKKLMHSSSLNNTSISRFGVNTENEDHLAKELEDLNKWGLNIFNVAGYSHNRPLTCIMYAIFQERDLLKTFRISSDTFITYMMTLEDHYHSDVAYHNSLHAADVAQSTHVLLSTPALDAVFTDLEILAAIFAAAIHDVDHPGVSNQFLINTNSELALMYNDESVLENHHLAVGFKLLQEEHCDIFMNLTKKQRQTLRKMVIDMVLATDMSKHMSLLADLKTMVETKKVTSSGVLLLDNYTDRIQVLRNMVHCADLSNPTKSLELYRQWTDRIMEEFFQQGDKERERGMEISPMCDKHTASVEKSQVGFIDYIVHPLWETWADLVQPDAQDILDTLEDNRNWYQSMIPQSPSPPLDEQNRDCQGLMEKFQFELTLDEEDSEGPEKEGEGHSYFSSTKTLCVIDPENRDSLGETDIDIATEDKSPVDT

The MIC99 is the lowest concentration that inhibits either 99% of growth or 99% of the strains tested, depending on the study. A lower MIC99 goes with higher susceptibility. The compound `Nc1ccc2c(c1Br)B(O)OC2` showed an MIC99 in assay [1] of 1.9 µM (≈ 0.433 µg/mL). That is a single-digit micromolar value.
As usually defined, the IC50 is the concentration at which inhibition is half-maximal. In turn, `CCOC(=O)/C(C#N)=C/c1ccc(B(O)O)cc1` yielded an IC50 with GH3 of 140 nM.
Compound `Cc1ccc2c(c1-c1ccccc1C(N)=O)B(O)OC2` came in with an IC50 in the assay with THP-1 of 1800 nM. Further, the MIC99 in assay [1] was found to be 5 µM (≈ 1.34 µg/mL).
In assay [2], `NCc1ccc2sc(B(O)O)cc2c1` gave a 50% inhibitory concentration (IC50) of 400 nM.
For `CC(C)(C)OC(=O)c1cccc2cc(B(O)O)sc12`, the IC50 in assay [3] lay in the range of 20200 to 27700 nM; in [4], 20200 to 27700 nM; in assay [5] it was 2300 to 4500 nM; in assay [6], 2300 to 4500 nM.
`CC(C)(C)OC(=O)Nc1cccc2cc(B(O)O)sc12`: the IC50 in assay [5] and in assay [6] was 2300 to 4500 nM in each case.
As for `CC(C)OCCOc1nc(Oc2ccc3c(c2)COB3O)ccc1C#N`, in assay [7], the IC50 is 2.1 to 8.4 nM.
What is called EC50 is the concentration needed to bring the measured effect to its halfway point. For `O=C(Nc1ccc2c(c1)B(O)OC2)c1cn(-c2ccccn2)nn1`, the EC50 in the assay on Leishmania tropica [8], with Leishmania major, in the assay with Leishmania panamensis, with Leishmania aethiopica, in the assay on Leishmania mexicana and in the assay on Leishmania tropica [9] was 2000 to 23000 nM throughout.
Take `Cc1c(Oc2nc(N)ns2)cc2c(c1C)[C@@H](CC(=O)O)OB2O`: the half-inhibitory concentration (IC50) (in assay [10]; in [11]; in assay [12]; in assay [13]; against Beta-lactamase TEM; in assay [14]) was 5 to 3900 nM each time. Also, the IC50 in [15] and in assay [16] was 5 to 3900 nM in each case.
Turning to `Cc1cnn(B(n2cc(C)cn2)n2cc(C)cn2)c1`, the figures for the half-maximal inhibitory concentration (IC50) with Hep 3B2 and in the assay on HepG2 were 15200 nM and 1250 nM, respectively.
`CSC[C@H](NC(=O)c1cc(Cl)ccc1Cl)C(=O)N[C@@H](CC(C)C)B1OCCNCCO1`: the concentration for half-maximal inhibition (IC50) is 4.6 nM in [17] and 8.4 nM in the assay with MDA-MB-231 [18].
Turning to `OB1OC(N2CCOCC2)c2cc(F)ccc21` (stereo unspecified), half-maximal inhibition in the assay with A2780 (IC50) was put at 14800 nM.
Turning to `CN(C)CCOc1cc(NC(=O)c2ccc3c(c2)COB3O)ccc1Cl`, the EC50 with Leishmania tropica [8], in the assay on Leishmania major, in the assay with Leishmania panamensis, in the assay on Leishmania aethiopica, in the assay on Leishmania mexicana and in the assay with Leishmania tropica [9] was 2000 to 23000 nM each time.
On to `O=C(/C=C/c1ccc2c(c1)OCO2)Nc1ccc2c(c1)B(O)OC2`, for which the MIC99 in assay [19] came to 40.7 µM (≈ 13.2 µg/mL). Besides, the IC50 in the assay on Trichomonas vaginalis was determined as 22800 nM; in [20] it was 86 nM.
The term Ki denotes the equilibrium dissociation constant of an inhibitor or competing ligand from its target. A high value points to a looser hold on the target. Regarding `O=C(O)/C=C/c1c(B(O)O)sc2ccccc12`, the Ki in assay [21] and in assay [2] was 40 to 90 nM each time.
By MIC is commonly meant the smallest concentration in the dilution series that meets the test's criterion for growth inhibition. A lower MIC goes with a more susceptible organism. Take `CC[C@H]1OC(=O)[C@H](C)[C@@H](O[C@H]2C[C@@](C)(OC)[C@@H](OC(=O)NCCCNC(=O)CCc3cccc4c3B(O)OC4)[C@H](C)O2)[C@H](C)[C@@H](O[C@@H]2O[C@H](C)C[C@H](N(C)C)[C@H]2O)[C@](C)(O)C[C@@H](C)CN(C)[C@H](C)[C@H]2OC(=O)O[C@@]21C`: the MIC in the assay with Streptococcus pneumoniae and in the assay on Enterococcus faecium was 0.13 µg/mL (≈ 0.122 µM) each time.
With `O=C(O)c1cccc2cc(B(O)O)sc12`, the 50% inhibitory concentration (IC50) in [3] was 20200 to 27700 nM; in [4], 20200 to 27700 nM; in assay [22], 23000 nM.
On to `O=C(/C=C/c1ccc2c(c1)B(O)OC2)c1ccc(F)cc1`, for which the IC50 in the assay with SK-OV-3, with MDA-MB-231 [23] and in the assay with HCT-116 was 1400 to 2800 nM throughout.
As for `O=C(O)CCc1cccc2c1B(O)OC2`, the IC50 was 32 nM with Plasmodium falciparum [24]; 32 nM in the assay on Plasmodium falciparum [25]; 32 nM in the assay on Plasmodium falciparum [27]; 32 nM in the assay on Plasmodium falciparum [28]; 64 nM in the assay on Plasmodium falciparum [29]; 32 nM with Plasmodium falciparum [30]. For the same compound, the IC50 in the assay with Plasmodium falciparum [31] and with Plasmodium falciparum [32] was 32 nM throughout. Besides, the ED90 in the assay on Plasmodium falciparum [26] is 0.34 mg/kg; with Plasmodium berghei, 0.57 mg/kg.
In assay [17], `CCc1cccc(Nc2ccn(CCC(=O)N[C@@H](CC(C)C)B(O)O)c(=O)c2)c1` displayed a Ki of 17 nM. In other words, the double-digit nanomolar range.
